Measured values reported in ChEMBL document CHEMBL6083280, “De Novo Discovery of a Noncovalent Cell-Penetrating Bicyclic Peptide Inhibitor Targeting SARS-CoV-2 Main Protease” (J Med Chem, 2024).

molecular target: Replicase polyprotein 1ab (Severe acute respiratory syndrome coronavirus 2, UniProt P0DTD1); assay: Inhibition of N-terminal his-tagged SARS-CoV-2 Main protease expressed in Escherichia coli BL21 (DE3) using Dabcyl-TSAVLWSGFRICMK-Edans as substrate preincubated for 10 mins by microplate reader analysis

Row | Structure (SMILES) | IC50
1 | CC(C)C[C@@H]1NC(=O)[C@H](Cc2ccccc2)NC(=O)[C@@H]2CCCN2C(=O)[C@H]([C@@H](C)O)NC(=O)[C@H]([C@@H](C)O)NC(=O)[C@H]([C@@H](C)O)NC(=O)[C@H](Cc2c[nH]cn2)NC(=O)[C@H](C)NC(=O)[C@H]([C@@H](C)O)NC(=O)[C@H](C(C)C)NC(=O)[C@@H](Cc2ccc(O)cc2)NC(=O)CSC[C@@H](C(=O)NCC(N)=O)NC(=O)[C@@H]2CCCN2C(=O)[C@@H]2CCCN2C1=O | > 10000 nM
2 | CC(C)C[C@@H]1NC(=O)[C@H](Cc2ccccc2)NC(=O)[C@@H]2CCCN2C(=O)[C@H]([C@@H](C)O)NC(=O)[C@H]([C@@H](C)O)NC(=O)[C@H](C)NC(=O)[C@H](Cc2c[nH]cn2)NC(=O)[C@H](Cc2ccccc2)NC(=O)[C@H]([C@@H](C)O)NC(=O)[C@H](C(C)C)NC(=O)[C@@H](Cc2ccc(O)cc2)NC(=O)CSC[C@@H](C(=O)NCC(N)=O)NC(=O)[C@@H]2CCCN2C(=O)[C@@H]2CCCN2C1=O | 510 nM
3 | CC(C)[C@@H]1NC(=O)[C@@H](Cc2ccc(O)cc2)NC(=O)CSC[C@@H](C(=O)NCC(N)=O)NC(=O)[C@@H]2CCCN2C(=O)[C@@H]2CCCN2C(=O)[C@H](C)NC(=O)[C@H](Cc2ccccc2)NC(=O)[C@@H]2CCCN2C(=O)[C@H]([C@@H](C)O)NC(=O)[C@H]([C@@H](C)O)NC(=O)[C@H]([C@@H](C)O)NC(=O)[C@H](Cc2c[nH]cn2)NC(=O)[C@H](Cc2ccccc2)NC(=O)[C@H]([C@@H](C)O)NC1=O | 370 nM
4 | CC(C)C[C@@H]1NC(=O)[C@H](C)NC(=O)[C@@H]2CCCN2C(=O)[C@H]([C@@H](C)O)NC(=O)[C@H]([C@@H](C)O)NC(=O)[C@H]([C@@H](C)O)NC(=O)[C@H](Cc2c[nH]cn2)NC(=O)[C@H](Cc2ccccc2)NC(=O)[C@H]([C@@H](C)O)NC(=O)[C@H](C(C)C)NC(=O)[C@@H](Cc2ccc(O)cc2)NC(=O)CSC[C@@H](C(=O)NCC(N)=O)NC(=O)[C@@H]2CCCN2C(=O)[C@@H]2CCCN2C1=O | 5780 nM
5 | CC(C)C[C@@H]1NC(=O)[C@H](Cc2ccccc2)NC(=O)[C@@H]2CCCN2C(=O)[C@H]([C@@H](C)O)NC(=O)[C@H]([C@@H](C)O)NC(=O)[C@H]([C@@H](C)O)NC(=O)[C@H](Cc2c[nH]cn2)NC(=O)[C@H](Cc2ccccc2)NC(=O)[C@H]([C@@H](C)O)NC(=O)[C@H](C(C)C)NC(=O)[C@@H](Cc2ccc(O)cc2)NC(=O)CSC[C@@H](C(=O)NCC(N)=O)NC(=O)[C@@H]2CCCN2C(=O)[C@H](C)NC1=O | 610 nM
6 | CC(C)C[C@@H]1NC(=O)[C@H](Cc2ccccc2)NC(=O)[C@@H]2CCCN2C(=O)[C@H](C)NC(=O)[C@H]([C@@H](C)O)NC(=O)[C@H]([C@@H](C)O)NC(=O)[C@H](Cc2c[nH]cn2)NC(=O)[C@H](Cc2ccccc2)NC(=O)[C@H]([C@@H](C)O)NC(=O)[C@H](C(C)C)NC(=O)[C@@H](Cc2ccc(O)cc2)NC(=O)CSC[C@@H](C(=O)NCC(N)=O)NC(=O)[C@@H]2CCCN2C(=O)[C@@H]2CCCN2C1=O | 220 nM
7 | CC(C)C[C@@H]1NC(=O)[C@H](Cc2ccccc2)NC(=O)[C@@H]2CCCN2C(=O)[C@H]([C@@H](C)O)NC(=O)[C@H]([C@@H](C)O)NC(=O)[C@H]([C@@H](C)O)NC(=O)[C@H](Cc2c[nH]cn2)NC(=O)[C@H](Cc2ccccc2)NC(=O)[C@H]([C@@H](C)O)NC(=O)[C@H](C(C)C)NC(=O)[C@@H](Cc2ccc(O)cc2)NC(=O)CSC[C@@H](C(=O)NCC(N)=O)NC(=O)[C@H](C)NC(=O)[C@@H]2CCCN2C1=O | 1930 nM
8 | CC(C)C[C@@H]1NC(=O)[C@H](Cc2ccccc2)NC(=O)[C@H](C)NC(=O)[C@H]([C@@H](C)O)NC(=O)[C@H]([C@@H](C)O)NC(=O)[C@H]([C@@H](C)O)NC(=O)[C@H](Cc2c[nH]cn2)NC(=O)[C@H](Cc2ccccc2)NC(=O)[C@H]([C@@H](C)O)NC(=O)[C@H](C(C)C)NC(=O)[C@@H](Cc2ccc(O)cc2)NC(=O)CSC[C@@H](C(=O)NCC(N)=O)NC(=O)[C@@H]2CCCN2C(=O)[C@@H]2CCCN2C1=O | 390 nM
